≈ marks a conversion by molar mass, not a printed value.
test system: Bacillus cereus; assay: Antibacterial activity against Bacillus cereus MTCC 8372 at 50 ug/ml after 24 hrs by disc diffusion method; assay type: functional; conditions: MTCC 8372, 24 h, read-out: IZ

Compound | zone of inhibition at 50 µg/mL [mm]
CCOC(=O)c1c(-c2ccccc2)nn(-c2ccccc2)c1Cn1c(S)nc2ccccc21 | 8
CCOC(=O)c1c(-c2ccccc2)nn(-c2ccccc2)c1Cn1cnc2cc([N+](=O)[O-])ccc21 | 5

test system: Bacillus cereus; assay: Antibacterial activity against Bacillus cereus MTCC 8372 at 100 ug/ml after 24 hrs by disc diffusion method; assay type: functional; conditions: MTCC 8372, 24 h, read-out: IZ

Compound | zone of inhibition at 100 µg/mL [mm]
CCOC(=O)c1c(-c2ccccc2)nn(-c2ccccc2)c1Cn1c(S)nc2ccccc21 | 11
CCOC(=O)c1c(-c2ccccc2)nn(-c2ccccc2)c1Cn1cnc2cc([N+](=O)[O-])ccc21 | 10

test system: Staphylococcus aureus; assay: Antibacterial activity against Staphylococcus aureus MTCC 96 at 50 ug/ml after 24 hrs by disc diffusion method; assay type: functional; conditions: MTCC 96, 24 h, read-out: IZ

Compound | zone of inhibition at 50 µg/mL [mm]
CCOC(=O)c1c(-c2ccccc2)nn(-c2ccccc2)c1Cn1c(S)nc2ccccc21 | 8
CCOC(=O)c1c(-c2ccccc2)nn(-c2ccccc2)c1Cn1cnc2cc([N+](=O)[O-])ccc21 | 6

test system: Staphylococcus aureus; assay: Antibacterial activity against Staphylococcus aureus MTCC 96 at 100 ug/ml after 24 hrs by disc diffusion method; assay type: functional; conditions: MTCC 96, 24 h, read-out: IZ

Compound | zone of inhibition at 100 µg/mL [mm]
CCOC(=O)c1c(-c2ccccc2)nn(-c2ccccc2)c1Cn1c(S)nc2ccccc21 | 12
CCOC(=O)c1c(-c2ccccc2)nn(-c2ccccc2)c1Cn1cnc2cc([N+](=O)[O-])ccc21 | 12

test system: Escherichia coli; assay: Antibacterial activity against Escherichia coli MTCC 724 at 50 ug/ml after 24 hrs by disc diffusion method; assay type: functional; conditions: MTCC 724, 24 h, read-out: IZ

Compound | zone of inhibition at 50 µg/mL [mm]
CCOC(=O)c1c(-c2ccccc2)nn(-c2ccccc2)c1Cn1c(S)nc2ccccc21 | 8
CCOC(=O)c1c(-c2ccccc2)nn(-c2ccccc2)c1Cn1cnc2cc([N+](=O)[O-])ccc21 | 8

test system: Escherichia coli; assay: Antibacterial activity against Escherichia coli MTCC 724 at 100 ug/ml after 24 hrs by disc diffusion method; assay type: functional; conditions: MTCC 724, 24 h, read-out: IZ

Compound | zone of inhibition at 100 µg/mL [mm]
CCOC(=O)c1c(-c2ccccc2)nn(-c2ccccc2)c1Cn1c(S)nc2ccccc21 | 16
CCOC(=O)c1c(-c2ccccc2)nn(-c2ccccc2)c1Cn1cnc2cc([N+](=O)[O-])ccc21 | 18

test system: Klebsiella pneumoniae; assay: Antibacterial activity against Klebsiella pneumoniae MTCC 3384 at 50 ug/ml after 24 hrs by disc diffusion method; assay type: functional; conditions: MTCC 3384, 24 h, read-out: IZ

Compound | zone of inhibition at 50 µg/mL [mm]
CCOC(=O)c1c(-c2ccccc2)nn(-c2ccccc2)c1Cn1c(S)nc2ccccc21 | 8
CCOC(=O)c1c(-c2ccccc2)nn(-c2ccccc2)c1Cn1cnc2cc([N+](=O)[O-])ccc21 | 6

test system: Klebsiella pneumoniae; assay: Antibacterial activity against Klebsiella pneumoniae MTCC 3384 at 100 ug/ml after 24 hrs by disc diffusion method; assay type: functional; conditions: MTCC 3384, 24 h, read-out: IZ

Compound | zone of inhibition at 100 µg/mL [mm]
CCOC(=O)c1c(-c2ccccc2)nn(-c2ccccc2)c1Cn1c(S)nc2ccccc21 | 14
CCOC(=O)c1c(-c2ccccc2)nn(-c2ccccc2)c1Cn1cnc2cc([N+](=O)[O-])ccc21 | 11

test system: Aspergillus flavus; assay: Antifungal activity against Aspergillus flavus MTCC 873 at 50 ug/ml after 24 hrs by disc diffusion method; assay type: functional; conditions: not given

Compound | inhibition zone (IZ) [mm]
NYSTATIN | 16

same assay, conditions: MTCC 873, 24 h, read-out: IZ

Compound | zone of inhibition at 50 µg/mL [mm]
CCOC(=O)c1c(-c2ccccc2)nn(-c2ccccc2)c1Cn1c(S)nc2ccccc21 | 14
CCOC(=O)c1c(-c2ccccc2)nn(-c2ccccc2)c1Cn1cnc2cc([N+](=O)[O-])ccc21 | 6

test system: Aspergillus flavus; assay: Antifungal activity against Aspergillus flavus MTCC 873 at 100 ug/ml after 24 hrs by disc diffusion method; assay type: functional; conditions: not given

Compound | inhibition zone (IZ) [mm]
NYSTATIN | 20

same assay, conditions: MTCC 873, 24 h, read-out: IZ

Compound | zone of inhibition at 100 µg/mL [mm]
CCOC(=O)c1c(-c2ccccc2)nn(-c2ccccc2)c1Cn1c(S)nc2ccccc21 | 18
CCOC(=O)c1c(-c2ccccc2)nn(-c2ccccc2)c1Cn1cnc2cc([N+](=O)[O-])ccc21 | 10

test system: Aspergillus niger; assay: Antifungal activity against Aspergillus niger MTCC 281 at 50 ug/ml after 24 hrs by disc diffusion method; assay type: functional; conditions: MTCC 281, 24 h, read-out: IZ

Compound | zone of inhibition at 50 µg/mL [mm]
CCOC(=O)c1c(-c2ccccc2)nn(-c2ccccc2)c1Cn1c(S)nc2ccccc21 | 10
CCOC(=O)c1c(-c2ccccc2)nn(-c2ccccc2)c1Cn1cnc2cc([N+](=O)[O-])ccc21 | 5

test system: Bacillus cereus; assay: Antibacterial activity against Bacillus cereus MTCC 8372 after 24 hrs by microdilution method; assay type: functional; conditions: MTCC 8372, 24 h

Compound | MIC [µg/mL]
CCOC(=O)c1c(-c2ccccc2)nn(-c2ccccc2)c1Cn1c(S)nc2ccccc21 | 20 (≈ 44 µM)
CCOC(=O)c1c(-c2ccccc2)nn(-c2ccccc2)c1Cn1cnc2cc([N+](=O)[O-])ccc21 | 35 (≈ 74.9 µM)

test system: Bacillus cereus; assay: Antibacterial activity against Bacillus cereus MTCC 8372 assessed as concentration required to completely destroy test microorganisms after 24 hrs; assay type: functional; conditions: MTCC 8372, 24 h

Compound | MBC [µg/mL]
CCOC(=O)c1c(-c2ccccc2)nn(-c2ccccc2)c1Cn1c(S)nc2ccccc21 | 160 (≈ 352 µM)
CCOC(=O)c1c(-c2ccccc2)nn(-c2ccccc2)c1Cn1cnc2cc([N+](=O)[O-])ccc21 | 200 (≈ 428 µM)

test system: Staphylococcus aureus; assay: Antibacterial activity against Staphylococcus aureus MTCC 96 after 24 hrs by microdilution method; assay type: functional; conditions: MTCC 96, 24 h

Compound | MIC [µg/mL]
CCOC(=O)c1c(-c2ccccc2)nn(-c2ccccc2)c1Cn1c(S)nc2ccccc21 | 20 (≈ 44 µM)
CCOC(=O)c1c(-c2ccccc2)nn(-c2ccccc2)c1Cn1cnc2cc([N+](=O)[O-])ccc21 | 25 (≈ 53.5 µM)

test system: Staphylococcus aureus; assay: Antibacterial activity against Staphylococcus aureus MTCC 96 assessed as concentration required to completely destroy test microorganisms after 24 hrs; assay type: functional; conditions: MTCC 96, 24 h

Compound | MBC [µg/mL]
CCOC(=O)c1c(-c2ccccc2)nn(-c2ccccc2)c1Cn1c(S)nc2ccccc21 | 150 (≈ 330 µM)
CCOC(=O)c1c(-c2ccccc2)nn(-c2ccccc2)c1Cn1cnc2cc([N+](=O)[O-])ccc21 | 190 (≈ 406 µM)

test system: Escherichia coli; assay: Antibacterial activity against Escherichia coli MTCC 724 after 24 hrs by microdilution method; assay type: functional; conditions: MTCC 724, 24 h

Compound | MIC [µg/mL]
CCOC(=O)c1c(-c2ccccc2)nn(-c2ccccc2)c1Cn1c(S)nc2ccccc21 | 25 (≈ 55 µM)
CCOC(=O)c1c(-c2ccccc2)nn(-c2ccccc2)c1Cn1cnc2cc([N+](=O)[O-])ccc21 | 25 (≈ 53.5 µM)

test system: Escherichia coli; assay: Antibacterial activity against Escherichia coli MTCC 724 assessed as concentration required to completely destroy test microorganisms after 24 hrs; assay type: functional; conditions: MTCC 724, 24 h

Compound | MBC [µg/mL]
CCOC(=O)c1c(-c2ccccc2)nn(-c2ccccc2)c1Cn1c(S)nc2ccccc21 | 175 (≈ 385 µM)
CCOC(=O)c1c(-c2ccccc2)nn(-c2ccccc2)c1Cn1cnc2cc([N+](=O)[O-])ccc21 | 180 (≈ 385 µM)

test system: Klebsiella pneumoniae; assay: Antibacterial activity against Klebsiella pneumoniae MTCC 3384 after 24 hrs by microdilution method; assay type: functional; conditions: MTCC 3384, 24 h

Compound | MIC [µg/mL]
CCOC(=O)c1c(-c2ccccc2)nn(-c2ccccc2)c1Cn1c(S)nc2ccccc21 | 25 (≈ 55 µM)
CCOC(=O)c1c(-c2ccccc2)nn(-c2ccccc2)c1Cn1cnc2cc([N+](=O)[O-])ccc21 | 25 (≈ 53.5 µM)

test system: Klebsiella pneumoniae; assay: Antibacterial activity against Klebsiella pneumoniae MTCC 3384 assessed as concentration required to completely destroy test microorganisms after 24 hrs; assay type: functional; conditions: MTCC 3384, 24 h

Compound | MBC [µg/mL]
CCOC(=O)c1c(-c2ccccc2)nn(-c2ccccc2)c1Cn1c(S)nc2ccccc21 | 160 (≈ 352 µM)
CCOC(=O)c1c(-c2ccccc2)nn(-c2ccccc2)c1Cn1cnc2cc([N+](=O)[O-])ccc21 | 185 (≈ 396 µM)

test system: Aspergillus flavus; assay: Antifungal activity against Aspergillus flavus MTCC 873 after 48 hrs by microdilution method; assay type: functional; conditions: not given

Compound | MIC [µg/mL]
NYSTATIN | 8

same assay, conditions: MTCC 873, 48 h

Compound | MIC [µg/mL]
CCOC(=O)c1c(-c2ccccc2)nn(-c2ccccc2)c1Cn1c(S)nc2ccccc21 | 50 (≈ 110 µM)
CCOC(=O)c1c(-c2ccccc2)nn(-c2ccccc2)c1Cn1cnc2cc([N+](=O)[O-])ccc21 | 55 (≈ 118 µM)

test system: Aspergillus flavus; assay: Antifungal activity against Aspergillus flavus MTCC 873 assessed as concentration required to completely destroy test microorganisms after 24 hrs; assay type: functional; conditions: not given

Compound | MFC [µg/mL]
NYSTATIN | 100

same assay, conditions: MTCC 873, 24 h

Compound | MFC [µg/mL]
CCOC(=O)c1c(-c2ccccc2)nn(-c2ccccc2)c1Cn1c(S)nc2ccccc21 | 290 (≈ 638 µM)
CCOC(=O)c1c(-c2ccccc2)nn(-c2ccccc2)c1Cn1cnc2cc([N+](=O)[O-])ccc21 | 290 (≈ 620 µM)

test system: Aspergillus niger; assay: Antifungal activity against Aspergillus niger MTCC 281 after 48 hrs by microdilution method; assay type: functional; conditions: not given

Compound | MIC [µg/mL]
NYSTATIN | 10

same assay, conditions: MTCC 281, 48 h

Compound | MIC [µg/mL]
CCOC(=O)c1c(-c2ccccc2)nn(-c2ccccc2)c1Cn1c(S)nc2ccccc21 | 40 (≈ 88 µM)
CCOC(=O)c1c(-c2ccccc2)nn(-c2ccccc2)c1Cn1cnc2cc([N+](=O)[O-])ccc21 | 65 (≈ 139 µM)

test system: Aspergillus niger; assay: Antifungal activity against Aspergillus niger MTCC 281 assessed as concentration required to completely destroy test microorganisms after 24 hrs; assay type: functional; conditions: not given

Compound | MFC [µg/mL]
NYSTATIN | 100

same assay, conditions: MTCC 281, 24 h

Compound | MFC [µg/mL]
CCOC(=O)c1c(-c2ccccc2)nn(-c2ccccc2)c1Cn1c(S)nc2ccccc21 | 290 (≈ 638 µM)
CCOC(=O)c1c(-c2ccccc2)nn(-c2ccccc2)c1Cn1cnc2cc([N+](=O)[O-])ccc21 | 280 (≈ 599 µM)

test system: Aspergillus niger; assay: Antifungal activity against Aspergillus niger MTCC 281 at 100 ug/ml after 24 hrs by disc diffusion method; assay type: functional; conditions: MTCC 281, 24 h, read-out: IZ

Compound | zone of inhibition at 100 µg/mL [mm]
CCOC(=O)c1c(-c2ccccc2)nn(-c2ccccc2)c1Cn1c(S)nc2ccccc21 | 16
CCOC(=O)c1c(-c2ccccc2)nn(-c2ccccc2)c1Cn1cnc2cc([N+](=O)[O-])ccc21 | 10

target: T1, Alpha amylase (Homo sapiens, UniProt P0DUB6); assay: Inhibition of alpha-amylase (unknown origin) using starch as substrate after 30 mins by spectrophotometer analysis; conditions: not given
T1 sequence (P0DUB6 whole entry): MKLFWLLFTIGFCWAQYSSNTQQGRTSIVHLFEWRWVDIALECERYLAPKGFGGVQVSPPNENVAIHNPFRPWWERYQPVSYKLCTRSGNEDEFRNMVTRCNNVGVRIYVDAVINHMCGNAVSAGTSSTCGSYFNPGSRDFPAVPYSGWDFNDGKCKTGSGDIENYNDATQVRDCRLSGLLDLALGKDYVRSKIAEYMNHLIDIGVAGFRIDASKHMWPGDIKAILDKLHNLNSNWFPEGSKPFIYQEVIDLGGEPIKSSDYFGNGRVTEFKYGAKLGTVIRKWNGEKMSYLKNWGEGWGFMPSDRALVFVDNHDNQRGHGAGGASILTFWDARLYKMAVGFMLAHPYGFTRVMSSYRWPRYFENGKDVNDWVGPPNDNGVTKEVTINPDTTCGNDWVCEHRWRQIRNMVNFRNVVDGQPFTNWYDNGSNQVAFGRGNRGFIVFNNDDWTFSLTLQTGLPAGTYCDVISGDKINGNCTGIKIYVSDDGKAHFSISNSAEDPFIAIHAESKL

Compound | IC50 [µg/mL]
CCOC(=O)c1c(-c2ccccc2)nn(-c2ccccc2)c1Cn1c(S)nc2ccccc21 | 40 (≈ 88 µM)
CCOC(=O)c1c(-c2ccccc2)nn(-c2ccccc2)c1Cn1cnc2cc([N+](=O)[O-])ccc21 | 30 (≈ 64.2 µM)

target: not listed separately; assay: Inhibition of alpha-glucosidase (unknown origin) using p-nitrophenol glycoside as substrate after 30 mins by colorimetric analysis; design: species or system Homo sapiens; conditions: not given

Compound | IC50 [µg/mL]
CCOC(=O)c1c(-c2ccccc2)nn(-c2ccccc2)c1Cn1c(S)nc2ccccc21 | 45 (≈ 99 µM)
CCOC(=O)c1c(-c2ccccc2)nn(-c2ccccc2)c1Cn1cnc2cc([N+](=O)[O-])ccc21 | 30 (≈ 64.2 µM)
